# Reference: article PMC9599461, “Stereoselectivity in the Membrane Transport of Phenylethylamine Derivatives by Human Monoamine Transporters and Organic Cation Transporters 1, 2, and 3” (Biomolecules, 2022)
# Where two headings read alike, the source gives them in different places.
# How the values were obtained:
# DAT = DAT (Homo sapiens, UniProt Q01959); experiment: Stereoselective uptake into DAT-overexpressing HEK293 cells; settings: for Clint ± SEM / Stereoselectivity Vmax / Stereoselectivity Km: DAT; for Clint ± SEM: quotient of vmax over Km; for Stereoselectivity Vmax / Stereoselectivity Km: ratio between enantiomers; for Stereoselectivity Vmax: given as for (R) or for 1; for selectivity ratio at 2 min: human;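 on all read-outs here: intracellular accumulation measured by chiral HPLC-MS/MS in stably transfected HEK293 cells, normalized to total protein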
# SERT [1] = target: T1, SERT (Homo sapiens, UniProt P31645); experiment: in vitro;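 further: uptake into HEK293 cells stably expressing human SERT over 2 min, enantiomers measured in cell lysate by chiral HPLC-MS/MS, normalized to total protein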
# SERT [2] = target: T1, SERT; experiment: Stereoselective uptake into SERT-overexpressing HEK293 cells; settings: for Clint ± SEM: quotient of vmax over Km;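 on all read-outs here: uptake into HEK293 cells stably expressing human SERT over 2 min, enantiomers measured in cell lysate by chiral HPLC-MS/MS, normalized to total protein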
# OCT1 = target: T2, OCT1 (Homo sapiens, UniProt O15245); experiment: Stereoselective uptake into OCT1-overexpressing HEK293 cells; settings: for Clint ± SEM: quotient of vmax over Km; for selectivity ratio at 2 min: human;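 on all read-outs here: enantiomers quantified inside cells by chiral HPLC-MS/MS, uptake normalized to total protein from bicinchoninic acid assay, substrates applied in HBSS+ buffer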
# T2 sequence (O15245 1-554): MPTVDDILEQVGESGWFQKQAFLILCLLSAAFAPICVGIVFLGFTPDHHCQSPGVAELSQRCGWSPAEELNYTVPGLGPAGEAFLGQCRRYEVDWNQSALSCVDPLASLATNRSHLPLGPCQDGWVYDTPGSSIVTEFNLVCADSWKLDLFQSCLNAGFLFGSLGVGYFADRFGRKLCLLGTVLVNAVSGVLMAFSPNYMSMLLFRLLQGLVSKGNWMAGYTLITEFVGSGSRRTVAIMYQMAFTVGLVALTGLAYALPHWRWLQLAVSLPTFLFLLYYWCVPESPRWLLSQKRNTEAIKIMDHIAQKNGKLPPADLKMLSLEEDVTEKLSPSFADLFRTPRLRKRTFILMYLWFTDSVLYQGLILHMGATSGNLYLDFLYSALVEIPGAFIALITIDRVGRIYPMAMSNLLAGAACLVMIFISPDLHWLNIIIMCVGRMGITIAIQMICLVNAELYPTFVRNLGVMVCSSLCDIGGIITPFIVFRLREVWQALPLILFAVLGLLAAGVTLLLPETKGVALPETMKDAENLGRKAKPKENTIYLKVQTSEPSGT
# OCT3 = target: T3, OCT3 (Homo sapiens, UniProt O75751); experiment: Stereoselective uptake into OCT3-overexpressing HEK293 cells; settings: for Clint ± SEM / Stereoselectivity Vmax / Stereoselectivity Km: OCT3; for Clint ± SEM: quotient of vmax over Km; for Stereoselectivity Vmax / Stereoselectivity Km: ratio between enantiomers; for Stereoselectivity Vmax: given as for (R) or for 1; for Stereoselectivity Km: given as for (R) or for 1 (first-eluting); for selectivity ratio at 2 min: human;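 on all read-outs here: intracellular accumulation in HEK293 cells measured by chiral HPLC-MS/MS after a 2 min substrate exposure at 37 °C, uptake normalized to total protein (bicinchoninic acid assay)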
# T3 sequence (O75751 1-556): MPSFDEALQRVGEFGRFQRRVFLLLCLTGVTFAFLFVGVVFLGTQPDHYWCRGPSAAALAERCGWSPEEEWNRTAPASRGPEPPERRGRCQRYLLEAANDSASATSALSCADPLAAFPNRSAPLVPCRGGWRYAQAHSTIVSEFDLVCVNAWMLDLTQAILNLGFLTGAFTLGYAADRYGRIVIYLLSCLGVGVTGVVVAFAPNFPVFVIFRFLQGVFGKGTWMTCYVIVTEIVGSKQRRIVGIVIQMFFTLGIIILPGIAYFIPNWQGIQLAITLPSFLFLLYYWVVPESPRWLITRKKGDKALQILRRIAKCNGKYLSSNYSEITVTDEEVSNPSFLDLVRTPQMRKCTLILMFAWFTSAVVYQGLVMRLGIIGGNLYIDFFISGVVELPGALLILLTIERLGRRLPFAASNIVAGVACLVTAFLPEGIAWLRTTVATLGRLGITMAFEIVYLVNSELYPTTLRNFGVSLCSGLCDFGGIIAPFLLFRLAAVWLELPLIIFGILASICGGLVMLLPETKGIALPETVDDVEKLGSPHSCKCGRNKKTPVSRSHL
# NET = NET (Homo sapiens, UniProt P23975); experiment: Stereoselective uptake into NET-overexpressing HEK293 cells; settings: for Clint ± SEM / Stereoselectivity Vmax / Stereoselectivity Km: NET; for Clint ± SEM: quotient of vmax over Km; for Stereoselectivity Vmax / Stereoselectivity Km: ratio between enantiomers; for Stereoselectivity Vmax: given as for (R) or for 1; for Stereoselectivity Km: given as for (S) or for 2 (second-eluting); for selectivity ratio at 2 min: human;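 on all read-outs here: intracellular enantiomers quantified in cell lysates by chiral HPLC-MS/MS after a 2 min substrate incubation, with uptake normalized to total cellular protein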
# OCT2 = target: T4, OCT2 (Homo sapiens, UniProt O15244); experiment: Stereoselective uptake into OCT2 (wild-type)-overexpressing HEK293 cells; settings: OCT2; for Clint ± SEM: quotient of vmax over Km; for selectivity ratio at 2 min: human, ratio between enantiomers
# T4 sequence (O15244 1-555 S270A): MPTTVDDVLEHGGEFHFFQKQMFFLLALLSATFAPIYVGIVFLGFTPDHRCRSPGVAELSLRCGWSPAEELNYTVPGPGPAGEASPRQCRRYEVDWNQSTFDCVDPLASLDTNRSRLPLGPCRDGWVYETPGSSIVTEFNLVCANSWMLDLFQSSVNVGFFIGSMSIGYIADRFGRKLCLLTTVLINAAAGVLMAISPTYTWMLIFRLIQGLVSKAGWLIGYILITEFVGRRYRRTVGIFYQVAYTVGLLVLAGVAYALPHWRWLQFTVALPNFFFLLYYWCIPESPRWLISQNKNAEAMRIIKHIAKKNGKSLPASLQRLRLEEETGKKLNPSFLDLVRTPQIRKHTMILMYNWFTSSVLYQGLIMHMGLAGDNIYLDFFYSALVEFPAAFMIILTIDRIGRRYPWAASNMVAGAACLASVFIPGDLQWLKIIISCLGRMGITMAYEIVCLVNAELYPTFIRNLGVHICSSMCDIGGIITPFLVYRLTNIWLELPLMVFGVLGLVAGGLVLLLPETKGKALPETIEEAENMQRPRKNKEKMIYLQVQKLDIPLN
# [3] = test system: OCT2 wild-type versus A270S variant; experiment: in vitro; settings: human, Transporter selectivity, OCT2 wild-type versus A270S, 100 μM racemic substance, two minutes; given as for WT;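 further: uptake into HEK293 cells stably overexpressing human OCT2 variants, intracellular enantiomers quantified by chiral HPLC-MS/MS and normalized to total protein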
# Description: All transport experiments were carried out in HEK293 cells stably overexpressing human MATs or OCTs. […] All cells were regularly cultivated in DMEM supplemented with 10% (v/v) FCS, penicillin (100 U/mL) and streptomycin (100 μg/mL)and kept in culture for no longer than 30 passages.
# For the uptake experiments, 300,000 cells were plated in poly-D-lysine precoated 24-well plates 48 h ahead of the transport experiment. On the day of experiment, cells were initially washed once with 37 °C pre-warmed HBSS+ (Hanks buffered salt solution supplemented with 10 mM HEPES) and subsequently incubated with the substrates dissolved in pre-warmed HBSS+ for exactly two minutes. Incubation was stopped by adding ice-cold HBSS+ followed by two washing steps. After this, cells were lysed with 80% acetonitrile containing 10 ng/mL milnacipran as internal standard for high-performance liquid chromatography coupled to tandem mass spectrometry (HPLC-MS/MS) analysis. For every experiment, two additional wells per cell line were lysed using RIPA buffer for protein quantification. Total protein was quantified using the bicinchoninic acid assay [42]. This was later used for normalization of the uptake data.
# Intracellularly accumulated test substances were quantified by HPLC-MS/MS analysis using a Shimadzu Nexera HPLC system with a SIL-30AC autosampler, a CTO-20AC column oven, a LC-30AD pump, and a CBM-20A controller (Shimadzu, Kyoto, Japan). Stereoselective chromatography was carried out on a [sequence] CBH HPLC column (100 × 3 mm inner dimension with 5 μM particle size; Sigma-Aldrich, Darmstadt, Germany) with a corresponding 10 × 3 mm guard column. Reversed phased chromatography was carried out using an ammonium acetate (NH4Ac) buffered aqueous mobile phase with isopropyl alcohol (IPA) as organic solvent. […] The order of elution of the enantiomers was obtained from available reference literature [43] or by applying enantiopure reference compounds to the chiral HPLC. […] However, in every other case where the order of elution was available, the (R)-enantiomer eluted first. Given the structural similarity of the investigated substances and the fact that separation was performed on the same column with almost identical mobile phases, we assume that this order of elution for our compound set is always the (R)- before the (S)-enantiomer.
# Detection was performed with an API 4000 tandem mass spectrometer (AB SCIEX, Darmstadt, Germany) operating in multiple-reaction-monitoring mode. Quantification was performed using the Analyst 1.6.2 software (AB SCIEX, Darmstadt, Germany) and quantified by comparison to standard curves with known concentrations.
# All uptake data were normalized to protein content to account for variation in the number of seeded sells. Transporter-mediated net uptake was calculated by subtracting uptake into empty vector-transfected control cells from uptake into transporter-transfected cells. Kinetic parameters were then determined after non-linear regression following the Michaelis–Menten equation (v = vmax × [S]/(Km + [S])) using GraphPad Prism (Version 5.01 for Windows, GraphPad Software, La Jolla, CA, USA). Vmax refers to the maximum transport velocity and Km is defined as the substance concentration required to reach half of vmax. The intrinsic clearance Clint was calculated as the quotient of vmax over Km.
# HEK293 cells stably overexpressing wild-type or mutant OCT2 were incubated with 100 μM racemic substance for two minutes.
# [4] = given as for (S) or for 2 (second-eluting)
# [5] = SERT, ratio between enantiomers, given as for (S) or for 2
# [6] = SERT, ratio between enantiomers, given as for (S) or for 2 (second-eluting)
# [7] = Stereoselectivity ClInt, OCT1, ratio between enantiomers, given as for (R) or for 1 (also 1.00-fold for 1/2)
# [8] = Stereoselectivity Km, OCT1, ratio between enantiomers, given as for (S) or for 2 (second-eluting)
# [9] = Stereoselectivity Vmax, OCT1, ratio between enantiomers, given as for (R) or for 1
# [10] = Stereoselectivity ClInt, given as for (S) or for 2
# [11] = Stereoselectivity Km, given as for (R) or for 1 (first-eluting)
# [12] = Stereoselectivity Vmax, given as for (R) or for 1
# T1 sequence (P31645 whole entry): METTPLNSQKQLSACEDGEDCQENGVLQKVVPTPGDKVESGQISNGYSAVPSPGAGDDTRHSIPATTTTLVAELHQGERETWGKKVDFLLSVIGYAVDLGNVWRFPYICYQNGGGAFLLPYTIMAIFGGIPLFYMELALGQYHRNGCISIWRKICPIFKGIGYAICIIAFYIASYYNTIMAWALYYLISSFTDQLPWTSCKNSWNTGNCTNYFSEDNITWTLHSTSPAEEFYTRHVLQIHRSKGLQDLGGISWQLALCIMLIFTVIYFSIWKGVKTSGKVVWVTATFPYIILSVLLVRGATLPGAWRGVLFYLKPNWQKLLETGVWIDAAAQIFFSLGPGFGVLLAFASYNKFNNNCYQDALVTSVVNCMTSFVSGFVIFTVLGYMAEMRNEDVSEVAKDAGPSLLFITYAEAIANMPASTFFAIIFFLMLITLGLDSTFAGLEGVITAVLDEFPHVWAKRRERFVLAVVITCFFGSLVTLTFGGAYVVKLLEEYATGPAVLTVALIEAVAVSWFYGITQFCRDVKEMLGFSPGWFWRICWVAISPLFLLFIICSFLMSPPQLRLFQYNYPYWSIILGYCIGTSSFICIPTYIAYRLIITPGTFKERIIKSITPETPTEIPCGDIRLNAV
# Chain of DAT (Q01959 whole entry): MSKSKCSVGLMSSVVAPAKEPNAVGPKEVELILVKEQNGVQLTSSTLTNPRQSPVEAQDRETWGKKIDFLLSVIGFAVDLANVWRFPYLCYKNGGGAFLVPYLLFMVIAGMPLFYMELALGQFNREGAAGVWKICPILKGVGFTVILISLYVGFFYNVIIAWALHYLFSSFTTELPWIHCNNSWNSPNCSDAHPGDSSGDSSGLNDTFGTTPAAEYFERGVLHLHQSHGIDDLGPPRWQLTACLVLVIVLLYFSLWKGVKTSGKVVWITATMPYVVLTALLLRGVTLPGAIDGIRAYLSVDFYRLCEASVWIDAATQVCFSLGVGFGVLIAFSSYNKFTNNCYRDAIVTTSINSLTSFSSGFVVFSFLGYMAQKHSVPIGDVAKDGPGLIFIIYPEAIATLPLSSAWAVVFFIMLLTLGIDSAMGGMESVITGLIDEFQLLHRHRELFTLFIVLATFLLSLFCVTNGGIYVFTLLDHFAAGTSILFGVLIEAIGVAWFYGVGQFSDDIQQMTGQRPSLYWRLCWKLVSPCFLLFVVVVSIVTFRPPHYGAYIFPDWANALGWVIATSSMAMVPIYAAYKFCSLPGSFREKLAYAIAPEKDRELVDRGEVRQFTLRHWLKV
# Chain of NET (P23975 whole entry): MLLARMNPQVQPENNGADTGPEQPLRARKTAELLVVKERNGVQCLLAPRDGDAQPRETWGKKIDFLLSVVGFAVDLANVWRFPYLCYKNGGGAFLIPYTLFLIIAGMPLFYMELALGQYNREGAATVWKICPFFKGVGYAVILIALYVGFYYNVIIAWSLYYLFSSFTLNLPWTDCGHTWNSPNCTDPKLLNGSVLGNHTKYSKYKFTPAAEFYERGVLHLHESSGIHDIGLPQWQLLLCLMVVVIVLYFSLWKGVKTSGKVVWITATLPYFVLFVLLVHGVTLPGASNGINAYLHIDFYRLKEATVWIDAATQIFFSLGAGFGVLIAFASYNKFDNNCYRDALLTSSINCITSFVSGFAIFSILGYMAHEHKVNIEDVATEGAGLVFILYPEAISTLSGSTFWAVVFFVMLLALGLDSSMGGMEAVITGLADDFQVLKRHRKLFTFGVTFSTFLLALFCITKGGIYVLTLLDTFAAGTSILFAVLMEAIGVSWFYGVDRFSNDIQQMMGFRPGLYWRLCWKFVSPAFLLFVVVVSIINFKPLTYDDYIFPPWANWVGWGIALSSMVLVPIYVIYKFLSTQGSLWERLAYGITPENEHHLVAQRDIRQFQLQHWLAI
SMILES,Clint ± SEM (DAT),Stereoselectivity Vmax (DAT) [fold],selectivity ratio at 2 min (DAT),selectivity ratio (SERT [1]),Clint ± SEM (SERT [2]; SERT),Clint ± SEM (OCT1; OCT1),selectivity ratio at 2 min (OCT1; [8]),selectivity ratio at 2 min (OCT1; [9]),Clint ± SEM (OCT3),Stereoselectivity Vmax (OCT3) [fold],Stereoselectivity Km (OCT3) [fold],selectivity ratio at 2 min (OCT3),Clint ± SEM (NET),Stereoselectivity Vmax (NET) [fold],selectivity ratio at 2 min (NET),Clint ± SEM (OCT2),selectivity ratio at 2 min (OCT2; [10]),selectivity ratio at 2 min (OCT2; [11]),selectivity ratio at 2 min (OCT2; [12]),"selectivity ratio at 2 min, 100 μM [3]",also measured
CNC[C@H](O)c1ccc(O)cc1 [(R)-Synephrine],23.1 mL × g Protein^−1 × min^−1,1.84,2.23,1.13,0.69 mL × g Protein^−1 × min^−1,21.0 mL × g Protein^−1 × min^−1,1.28,1.35,26.3 mL × g Protein^−1 × min^−1,1.05,1.11,1.06,37.3 mL × g Protein^−1 × min^−1,1.80,4.7,24.6 mL × g Protein^−1 × min^−1,1.01,2.07,2.05,1.41,Stereoselectivity Km (DAT; [4]): 1.21 fold; Stereoselectivity Vmax (SERT [2]; [5]): 1.35 fold; Stereoselectivity Km (SERT [2]; [6]): 1.52 fold; selectivity ratio at 2 min (OCT1; [7]): 1.73; Stereoselectivity Km (NET): 2.61 fold
CNC[C@@H](O)c1ccc(O)cc1 [(S)-Synephrine],10.4 mL × g Protein^−1 × min^−1,1.84,2.23,1.13,0.61 mL × g Protein^−1 × min^−1,12.1 mL × g Protein^−1 × min^−1,1.28,1.35,27.8 mL × g Protein^−1 × min^−1,1.05,1.11,1.06,7.92 mL × g Protein^−1 × min^−1,1.80,4.7,24.8 mL × g Protein^−1 × min^−1,1.01,2.07,2.05,1.2,Stereoselectivity Km (DAT; [4]): 1.21 fold; Stereoselectivity Vmax (SERT [2]; [5]): 1.35 fold; Stereoselectivity Km (SERT [2]; [6]): 1.52 fold; selectivity ratio at 2 min (OCT1; [7]): 1.73; Stereoselectivity Km (NET): 2.61 fold
CNC[C@H](O)c1cccc(O)c1 [(R)-Phenylephrine],17.2 mL × g Protein^−1 × min^−1,1.56,1.48,2.82,17.2 mL × g Protein^−1 × min^−1,9.79 mL × g Protein^−1 × min^−1,1.02,1.08,11.8 mL × g Protein^−1 × min^−1,3.33,1.19,2.79,75.5 mL × g Protein^−1 × min^−1,1.79,1.43,29.5 mL × g Protein^−1 × min^−1,1.02,1.89,2.04,1.27,"Stereoselectivity Km (DAT; given as for (R) or for 1 (first-eluting)): 1.06 fold; Vmax ± SEM (DAT; HEK293 cells overexpressing human DAT, racemic substrate, two minutes, net uptake): 613 pmol × mg Protein^−1 × min^−1; Km (DAT; read-out: Km ± SEM, HEK293 cells overexpressing human DAT, racemic substrate, two minutes, net uptake minus empty vector control): 35.6 µM; Stereoselectivity Km (SERT [2]): 1.89 fold; Stereoselectivity Vmax (SERT [2]): 1.49 fold; Vmax ± SEM (SERT [2]): 356; Km (SERT [2]; read-out: Km ± SEM, HEK293 cells overexpressing human SERT, racemic substrate, two minutes, net uptake minus empty vector control): 328 µM; selectivity ratio at 2 min (OCT1; Stereoselectivity ClInt): 1.11; Vmax ± SEM (NET; HEK293 cells overexpressing human NET, racemic substrate, two minutes, net uptake): 392 pmol × mg Protein^−1 × min^−1; Km (NET; read-out: Km ± SEM, HEK293 cells overexpressing human NET, racemic substrate, two minutes, net uptake minus empty vector control): 5.12 µM"
